Laboratory results as given in ChEMBL document CHEMBL3751781, “Three-dimensional QSAR analysis and design of new 1,2,4-oxadiazole antibacterials” (2016).
Converted amounts (≈) assume the structure as drawn.

Tested on: Staphylococcus aureus
Assay: Antibacterial against Staphylococcus aureus
Type: functional
Settings: for MIC: Staphylococcus aureus

| SMILES | MIC [µg/mL] | -logMIC |
| --- | --- | --- |
| Nc1c[nH]nc1-c1nc(-c2ccc(Oc3ccc(C(F)(F)F)cc3)cc2)no1 |  | 4.573 |
| Oc1c(F)cc(-c2nc(-c3ccc(Oc4ccc(C(F)(F)F)cc4)cc3)no2)cc1F |  | 5.381 |
| NC(=O)c1ccc(-c2nc(-c3ccc(Oc4ccc(F)cc4)cc3)no2)cc1 | 128 (≈ 341 µM) | 1.158 |
| Nc1c[nH]nc1-c1nc(-c2ccc(Oc3ccccc3)cc2)no1 |  | 2.994 |
| Nc1cncc(-c2nc(-c3ccc(Oc4ccc(C(F)(F)F)cc4)cc3)no2)c1 | 128 (≈ 321 µM) | 1.135 |
| FC(F)(F)c1ccc(Oc2ccc(-c3noc(-c4c[nH]c5ncccc45)n3)cc2)cc1 | 128 (≈ 303 µM) | 1.194 |
| Cc1nc(-c2ccc(Oc3ccc(C(F)(F)F)cc3)cc2)no1 | 128 (≈ 400 µM) | 0.917 |
| O=[N+]([O-])c1c[nH]nc1-c1nc(-c2ccc(Oc3ccc(F)c(F)c3)cc2)no1 | 2 (≈ 5.19 µM) | 5.261 |
| Clc1ccc(Oc2ccc(-c3noc(-c4n[nH]cc4Cl)n3)cc2)cc1Cl | 1 (≈ 2.45 µM) | 6.01 |
| Oc1ccc(-c2nc(-c3ccc(Oc4ccccc4)c(Cl)c3)no2)cc1 | 2 (≈ 5.48 µM) | 5.206 |

The next lines start with results.

| MIC [µg/mL] | SMILES | -logMIC |
| --- | --- | --- |
| 128 (≈ 311 µM) | Fc1ccc(Oc2ccc(-c3noc(-c4ccc(Br)cc4)n3)cc2)cc1 | 1.167 |
| 128 (≈ 398 µM) | Fc1ccc(Oc2ccc(-c3noc(-c4cc[nH]c4)n3)cc2)cc1 | 0.92 |
| 128 (≈ 387 µM) | COc1ccc(-c2nc(-c3ccc(Br)cc3)no2)cc1 | 0.951 |
| 32 (≈ 92.4 µM) | Oc1ccc(Oc2ccc(-c3noc(-c4ccc(O)cc4)n3)cc2)cc1 | 2.382 |
| 64 (≈ 171 µM) | O=C(O)c1cccc(Oc2ccc(-c3noc(-c4ccc(O)cc4)n3)cc2)c1 | 1.766 |
| 128 (≈ 367 µM) | Oc1ccc(Oc2ccc(-c3noc(-c4ccc(F)cc4)n3)cc2)cc1 | 1.001 |
| 8 (≈ 18.9 µM) | Oc1ccc(-c2nc(-c3ccc(Oc4ccccc4CBr)cc3)no2)cc1 | 3.969 |
| 128 (≈ 533 µM) | Fc1ccc(-c2nc(-c3ccccc3)no2)cc1 | 0.63 |
